Measurements from PubChem BioAssay AID588568 (The Scripps Research Institute Molecular Screening Center, 2011).
Active and inactive are the calls of the source. How the calls were made is not given here.

biological target: Melanin-concentrating hormone receptor 1 (Homo sapiens) (UniProt Q99705); assay: MCHR1 antagonists, dose response, counter-screen for GPR7 antagonist project, cell-based, fluorescence, set 4 (AID 588568); conditions: MCHR1-expressing cells, fluorescence antagonist assay; run 1

Row | SMILES | IC50
1 | Cc1cc(C)cc(-n2nc(C#N)c(=O)[nH]c2=O)c1 | > 20 µM (inactive)
2 | CCCCCc1ccc(-n2ncc(Cl)c(Oc3ccc(OC)cc3)c2=O)cc1 | 9.78 µM
3 | CCOc1ccc(Oc2ccnn(Cc3cccc4ccccc34)c2=O)cc1 | 4.6 µM
4 | COc1ccc(Oc2c(Cl)cnn(C(c3ccccc3)c3cccc4ccccc34)c2=O)cc1 (stereo unspecified) | > 20 µM (inactive)
5 | CN(C)Cc1ccc(Oc2c(Cl)cnn(Cc3cccc4ccccc34)c2=O)cc1 | > 20 µM (inactive)
6 | NCc1ccc(Oc2c(Cl)cnn(Cc3cccc4ccccc34)c2=O)cc1 | inactive
7 | Cc1ccccc1Cn1ncc(Oc2ccc(CO)cc2)c(Cl)c1=O | 6.54 µM
8 | COc1ccc(Oc2c(Cl)cnn(C(C(=O)OCCC3CCCC3)c3ccccc3Cl)c2=O)cc1 (stereo unspecified) | > 20 µM (inactive)
9 | COc1ccc(Oc2c(Cl)cnn(C(COC(C)=O)c3cccc4ccccc34)c2=O)cc1 (stereo unspecified) | > 20 µM (inactive)
10 | O=c1c(Oc2ccc3occc3c2)c(Cl)cnn1Cc1cccc2ccccc12 | > 20 µM (inactive)
11 | Cc1ccccc1Cn1ncc(Cl)c(Oc2ccc(CO)cc2)c1=O | 4.92 µM
12 | O=c1c(Oc2ccc(Oc3ccccc3)cc2)c(Cl)cnn1Cc1cccc2ccccc12 | > 20 µM (inactive)
13 | COc1ccc(Oc2c(Cl)cnn(Cc3ccc4c(c3)OCO4)c2=O)cc1 | 7.57 µM
14 | COc1ccc(Oc2c(Cl)cnn(-c3ccc(C)cc3C)c2=O)cc1 | 8.91 µM
15 | COc1ccc(Oc2c(Cl)cnn(C(C)c3cccc4ccccc34)c2=O)cc1 (stereo unspecified) | 8.69 µM
16 | Cc1cc(C)cc(-n2ncc(Cl)c(Oc3ccc(Oc4ccccc4)cc3)c2=O)c1 | 2.24 µM
17 | COc1ccc(Oc2c(Cl)cnn(Cc3ccc(OC(C)C)c(C#N)c3)c2=O)cc1 | 5.54 µM
18 | COc1ccc(Oc2c(Br)nn(-c3cccc(C)c3)c(=O)c2Oc2ccc(OC)cc2)cc1 | 1.66 µM
19 | COc1ccc(Oc2c(Cl)c(-c3ccccc3)nn(Cc3ccccc3C)c2=O)cc1 | 8.7 µM
20 | CC(=O)OCc1ccc(Oc2c(Cl)cnn(Cc3cccc4ccccc34)c2=O)cc1 | 6 µM
21 | COc1ccc(Oc2c(Cl)cnn(-c3ccc(C)c(C)c3)c2=O)cc1 | 9.47 µM
22 | COc1cccc(Oc2c(Cl)cnn(-c3cc(C)cc(C)c3)c2=O)c1 | > 20 µM (inactive)
23 | O=c1c(Oc2ccc(OC(F)(F)F)cc2)c(Cl)cnn1Cc1cccc2ccccc12 | inactive
24 | COc1ccc(Oc2c(Cl)cnn(-c3ccc(OC(C)C)cc3)c2=O)cc1 | 6.5 µM
25 | CCOc1ccc(Oc2c(N)cnn(Cc3cccc4ccccc34)c2=O)cc1 | 5.02 µM
26 | CCOc1ccc(Oc2c(Cl)cnn(-c3cc(C)cc(C)c3)c2=O)cc1 | 2.41 µM
27 | Cc1ccc(-n2ncc(Cl)c(Oc3ccc(O)cc3)c2=O)cc1 | > 20 µM (inactive)
28 | COc1ccc(Oc2c(Cl)cnn(-c3ccc(OC)cc3)c2=O)cc1 | inactive
29 | Cc1cccc(Cn2ncc(Cl)c(Oc3ccc(CO)cc3)c2=O)c1 | > 11.5 µM (inactive)
30 | COc1ccc(Oc2c(Cl)cnn(C(CCl)c3cccc4ccccc34)c2=O)cc1 (stereo unspecified) | > 20 µM (inactive)

same assay, conditions: MCHR1-expressing cells, fluorescence antagonist assay; run 2

Row | SMILES | IC50
31 | COc1ccc(Oc2c(Cl)cnn(-c3ccc(C)c(C)c3)c2=O)cc1 | 3.99 µM
